According to ChEMBL document CHEMBL1201862, “PubChem BioAssay data set” (2004):
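Grown in 96-well plates, cells were treated for 48 hours with each compound at five concentrations. Insufficient inhibition: endpoint recorded as highest concentration tested. At the GI50, growth is halved.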 Active and inactive are the calls of the source. Rule as the data show it: active = GI50 up to about 1.1 µM and inactive = higher.

Experiments:
Experiment in all cases: NCI anticancer screen, dose series, 48 h
SN12C = tested on: SN12C
M14 = tested on: M14
RPMI-8226 = tested on: RPMI-8226
HOP-92 = tested on: HOP-92
SNB-75 = tested on: SNB-75
Malme-3M = tested on: Malme-3M
SF-295 = tested on: SF-295
UO-31 = tested on: UO-31
HL-60 = tested on: HL-60
SR = tested on: SR
EKVX = tested on: EKVX
HCC 2998 = tested on: HCC 2998
MOLT-4 = tested on: MOLT-4
OVCAR-4 = tested on: OVCAR-4
NCI-H23 = tested on: NCI-H23

Row | Compound | GI50 (SN12C) | GI50 (M14) | GI50 (RPMI-8226) | GI50 (HOP-92) | GI50 (SNB-75) | GI50 (Malme-3M) | GI50 (SF-295) | GI50 (UO-31) | GI50 (HL-60) | GI50 (SR) | GI50 (EKVX) | GI50 (HCC 2998) | GI50 (MOLT-4) | GI50 (OVCAR-4) | GI50 (NCI-H23)
1 | COC(=O)[C@@]12OC[C@]34C([C@@H](O)C1O)[C@@]1(C)CC(=O)C(O)=C(C)C1C[C@H]3OC(=O)[C@H](OC(=O)/C=C(/c1ccccc1)C(F)(F)F)[C@H]42 (some centres not stated) | 8.69 µM (inactive) | 3.54 µM (inactive) | 1.56 µM (inactive) | 2.15 µM (inactive) | 7.8 µM (inactive) | 1.16 µM (inactive) | 4.18 µM (inactive) | 6.82 µM (inactive) | 0.363 µM (active) | 0.655 µM (active) | 12 µM (inactive) | 1.75 µM (inactive) | 0.998 µM (active) | 6.31 µM (inactive) | 1.48 µM (inactive)
2 | CC1SC2=NC3=C(c4ccccc4C3=O)C(c3ccc(F)cc3)N2C1=O (configuration not stated) | 63.7 µM (inactive) | > 100 µM (inactive) | 65.3 µM (inactive) | 50.7 µM (inactive) | 35.6 µM (inactive) | > 100 µM (inactive) | > 100 µM (inactive) | 38.9 µM (inactive) | > 100 µM (inactive) |  | > 100 µM (inactive) | > 100 µM (inactive) | > 100 µM (inactive) | 42.5 µM (inactive) | > 100 µM (inactive)
3 | C/C(=C\c1ccccc1)C(=O)c1c(C)cc(C)cc1C | > 100 µM (inactive) | > 100 µM (inactive) | > 100 µM (inactive) | > 100 µM (inactive) | > 100 µM (inactive) | > 100 µM (inactive) | > 100 µM (inactive) | > 100 µM (inactive) | > 100 µM (inactive) | > 100 µM (inactive) | > 100 µM (inactive) |  | > 100 µM (inactive) | > 100 µM (inactive) | > 100 µM (inactive)
4 | CCCCCCCCCCCCCP(=O)(NCC(N)=O)OCC (configuration not stated) | 18.3 µM (inactive) | 16.9 µM (inactive) |  | 17 µM (inactive) | 5.31 µM (inactive) | 17.7 µM (inactive) | 17.3 µM (inactive) | 13.6 µM (inactive) | 13.8 µM (inactive) |  | 19.2 µM (inactive) | 20.2 µM (inactive) |  | 16.7 µM (inactive) | 24.3 µM (inactive)
5 | O=C1/C(=C/c2ccccc2)CN(C(=O)Oc2ccccc2)C/C1=C\c1ccccc1 | 65.3 µM (inactive) | 21.8 µM (inactive) | 0.221 µM (active) |  | 4.91 µM (inactive) | > 100 µM (inactive) | 11.2 µM (inactive) | 34.3 µM (inactive) | 1.7 µM (inactive) | 7.19 µM (inactive) | 62.2 µM (inactive) |  | 9.29 µM (inactive) | 96.2 µM (inactive) | 33 µM (inactive)
6 | CCOC(=O)C1=C(C)N(Cc2ccccc2)C(=O)C1CC#N (configuration not stated) | > 100 µM (inactive) | > 100 µM (inactive) | 99.8 µM (inactive) | 20.7 µM (inactive) | 55.2 µM (inactive) |  | > 100 µM (inactive) | > 100 µM (inactive) | 26.7 µM (inactive) | 49.8 µM (inactive) | > 100 µM (inactive) | > 100 µM (inactive) | 55.3 µM (inactive) | 47.1 µM (inactive) | > 100 µM (inactive)
7 | CCC1(O)C(=O)OCc2c1cc1n(c2=O)Cc2cc3ccc(CO)cc3nc2-1 (configuration not stated) | 1.53 µM (inactive) | 3.59 µM (inactive) | 7.08 µM (inactive) | 16.3 µM (inactive) | 2.18 µM (inactive) | 4.53 µM (inactive) | 3.18 µM (inactive) | 3.81 µM (inactive) | 2.57 µM (inactive) | 0.0646 µM (active) | 16.8 µM (inactive) | 8.26 µM (inactive) | 0.322 µM (active) | 23.8 µM (inactive) | 2.07 µM (inactive)
8 | CCOC(=O)C(C)(C)Oc1ccc2c(-c3ccc(Cl)cc3)cc(=O)oc2c1 | > 100 µM (inactive) | > 100 µM (inactive) | > 100 µM (inactive) |  | 19.3 µM (inactive) | > 100 µM (inactive) | > 100 µM (inactive) | > 100 µM (inactive) | > 100 µM (inactive) | > 100 µM (inactive) | > 100 µM (inactive) | > 100 µM (inactive) | > 100 µM (inactive) | > 100 µM (inactive) | > 100 µM (inactive)
9 | COc1ccc(S(=O)(=O)NNS(C)(=O)=O)cc1OC | > 100 µM (inactive) | > 100 µM (inactive) | > 100 µM (inactive) |  | > 100 µM (inactive) | > 100 µM (inactive) | > 100 µM (inactive) | > 100 µM (inactive) | > 100 µM (inactive) | > 100 µM (inactive) | > 100 µM (inactive) | > 100 µM (inactive) | > 100 µM (inactive) | > 100 µM (inactive) | > 100 µM (inactive)
10 | CCC(C)CC(C)CC(C)/C=C(\C)C1=C(C)CC(C)(O)O1 (configuration not stated) | 90.4 µM (inactive) | > 100 µM (inactive) | 24.4 µM (inactive) | 18.3 µM (inactive) | > 100 µM (inactive) |  |  | 26.3 µM (inactive) | 23.7 µM (inactive) |  | > 100 µM (inactive) | > 100 µM (inactive) | 35.7 µM (inactive) |  | 76.4 µM (inactive)
11 | COC1C2c3cc4c(cc3CC(C#N)(c3ccccc32)N1C(=O)c1ccccc1)OCO4 (configuration not stated) | > 100 µM (inactive) | > 100 µM (inactive) | 21 µM (inactive) | > 100 µM (inactive) | > 100 µM (inactive) | > 100 µM (inactive) | > 100 µM (inactive) | 78.3 µM (inactive) | > 100 µM (inactive) | 54.7 µM (inactive) | > 100 µM (inactive) | > 100 µM (inactive) | 97.5 µM (inactive) |  | > 100 µM (inactive)
12 | CC[C@@H]1OC2(C)CC(S(=O)(=O)c3ccccc3)CC1O2 (some centres not stated) | > 100 µM (inactive) | > 100 µM (inactive) | > 100 µM (inactive) | > 100 µM (inactive) | > 100 µM (inactive) | > 100 µM (inactive) | > 100 µM (inactive) | > 100 µM (inactive) | > 100 µM (inactive) | > 100 µM (inactive) | > 100 µM (inactive) | > 100 µM (inactive) | > 100 µM (inactive) | > 100 µM (inactive) | > 100 µM (inactive)
13 | CC(=O)C1CC2(c3ccccc3)C(=O)c3ccccc3N2O1 (configuration not stated) | > 100 µM (inactive) | > 100 µM (inactive) | > 100 µM (inactive) | > 100 µM (inactive) | > 100 µM (inactive) | > 100 µM (inactive) | > 100 µM (inactive) | > 100 µM (inactive) | > 100 µM (inactive) | > 100 µM (inactive) | > 100 µM (inactive) | > 100 µM (inactive) | > 100 µM (inactive) | > 100 µM (inactive) | > 100 µM (inactive)
14 | Nc1ccc(C(=O)N/C(=C\c2ccc3c(c2)OCO3)c2nc3c(O)nc(S)nc3[nH]2)cc1 | > 100 µM (inactive) | > 100 µM (inactive) |  | 75.5 µM (inactive) |  | > 100 µM (inactive) | > 100 µM (inactive) | > 100 µM (inactive) |  | > 100 µM (inactive) | > 100 µM (inactive) | > 100 µM (inactive) | > 100 µM (inactive) | > 100 µM (inactive) | > 100 µM (inactive)
15 | COCC(C)(C)/N=C/N1Cc2cc3ccccc3nc2C1 | > 100 µM (inactive) | > 100 µM (inactive) | > 100 µM (inactive) | > 100 µM (inactive) | > 100 µM (inactive) | > 100 µM (inactive) | > 100 µM (inactive) | > 100 µM (inactive) | > 100 µM (inactive) | > 100 µM (inactive) | > 100 µM (inactive) |  | > 100 µM (inactive) | > 100 µM (inactive) | > 100 µM (inactive)
16 | O=C(Cc1ccccc1)NS(=O)(=O)c1ccccc1 | > 100 µM (inactive) | > 100 µM (inactive) | > 100 µM (inactive) | > 100 µM (inactive) | > 100 µM (inactive) | > 100 µM (inactive) | > 100 µM (inactive) | > 100 µM (inactive) | > 100 µM (inactive) | > 100 µM (inactive) | > 100 µM (inactive) | > 100 µM (inactive) | > 100 µM (inactive) | > 100 µM (inactive) | > 100 µM (inactive)
17 | CC12C(=O)N(CCN)C(=O)C1C1c3ccccc3C2c2ccccc21 (configuration not stated) | > 100 µM (inactive) | > 100 µM (inactive) | > 100 µM (inactive) | 28.9 µM (inactive) | 37.3 µM (inactive) | > 100 µM (inactive) | > 100 µM (inactive) | > 100 µM (inactive) | 77.8 µM (inactive) |  | > 100 µM (inactive) | > 100 µM (inactive) | > 100 µM (inactive) | > 100 µM (inactive) | > 100 µM (inactive)
18 | CC(=O)N(C(C)=O)c1c(N)n(C)c(=O)[nH]c1=O | > 100 µM (inactive) | > 100 µM (inactive) | > 100 µM (inactive) | > 100 µM (inactive) |  | > 100 µM (inactive) | > 100 µM (inactive) | > 100 µM (inactive) | > 100 µM (inactive) |  | > 100 µM (inactive) | > 100 µM (inactive) | > 100 µM (inactive) | > 100 µM (inactive) | > 100 µM (inactive)
19 | Cn1c2ccccc2n2c(=O)c3c(c(C#N)c12)CCCC3 | > 100 µM (inactive) | > 100 µM (inactive) | > 100 µM (inactive) |  | 0.792 µM (active) | > 100 µM (inactive) | > 100 µM (inactive) | > 100 µM (inactive) | > 100 µM (inactive) | > 100 µM (inactive) | > 100 µM (inactive) | > 100 µM (inactive) | > 100 µM (inactive) | > 100 µM (inactive) | > 100 µM (inactive)
